Results on six molecules are retold here after patent US20090175911A1, “Bacterial Production of Carotenoids” (ROYAL HOLLOWAY AND BEDFORD NEW COLLEGE, priority 2005, published 2009).

In brackets after ≈: the same amount, converted by molar mass. Like-named read-outs stand apart in the source and are kept apart here.

In series [1] the test system is HU36. The series is described as follows: MIC determination. To be noted: Bacillus. Type of series: cell-based.
Series [2] concerns PY79. The series is described as follows: MIC determination. In kind it is cell-based. Particulars: Bacillus subtilis.
The conditions of series [3]: strains with MICs equal or higher are considered resistant, cited from earlier work.
Series [4] has as its system HU36. The series is described as follows: Disc diffusion antibiogram. In kind it is cell-based, Bacillus. (In general: In agar diffusion tests the substance spreads into inoculated agar from a disc or well.)
Series [5] relates to PY79. Description: Disc diffusion antibiogram. Particulars: 6 mm discs, amount per disc in brackets after each antibiotic, 18 h at 37° C., three experiments.
A further series relates to Natto. The series is described as follows: Disc diffusion antibiogram. Particulars: 6 mm discs, amount per disc in brackets after each antibiotic, 18 h at 37° C., three experiments.
Series [6] can be described thus: Gastric stability of carotenoids in simulated gastric fluid (SGF). Type of series: in vitro ADME. To be noted: SGF (1 mg/ml pepsin, 0.9% NaCl, pH 2), 37° C., by 20 minutes, versus 0 minutes.

Regarding `CC(C)(O/N=C(\C(=O)N[C@@H]1C(=O)N2C(C(=O)[O-])=C(C[n+]3ccccc3)CS[C@H]12)c1csc(N)n1)C(=O)O` [Ceftazidime], the MIC (commonly the lowest concentration found to suppress growth) with HU36 [1] amounted to 0.05 µg/mL (≈ 0.0915 µM); against PY79 [2], 0.025 µg/mL (≈ 0.0457 µM).
Turning to Gentamycin, the “Breakpoints EFSA” value in series [3] ((EFSA, 2005)) is 4 mg/L. The “Breakpoints SCAN” value in series [3] ((SCAN, 2002)) is 8 mg/L.
`CCn1cc(C(=O)O)c(=O)c2ccc(C)nc21` [Naladixic acid]: the “Zone of inhibition (mm)” value in the series on HU36 [4] (HU36, 6 mm discs, amount per disc in brackets after each antibiotic, 18 h at 37° C., three experiments) worked out at 22.8 ± 1.4 mm; in the series on PY79 [5] it was 20.7 ± 1.2 mm; with Natto it was 23 ± 1.7 mm.
Turning to `O=C(O)c1cn(C2CC2)c2cc(N3CCNCC3)c(F)cc2c1=O` [Ciporfloxacin], the “Zone of inhibition (mm)” value was 29.7 ± 0.6 mm with HU36 [4], 32.8 ± 1 mm with PY79 [5] and 33.3 ± 1.5 mm in the series on Natto.
With `CC1=C(/C=C/C(C)=C/C=C/C(C)=C/C=C/C=C(C)/C=C/C=C(C)/C=C/C2=C(C)CCCC2(C)C)C(C)(C)CCC1` [carotenoid standard, beta-carotene], the carotenoid remaining result in series [6] was “less than 1%”.
On to `CCC[C@@H]1C[C@@H](C(=O)N[C@@H]([C@H]2O[C@H](SC)[C@H](O)[C@@H](O)[C@H]2O)[C@H](C)Cl)N(C)C1` [Clindamycin], for which the MIC against HU36 [1] is 8 µg/mL (≈ 18.8 µM); with PY79 [2], 0.05 µg/mL (≈ 0.118 µM).
